Measurements: patent US20160257697A1, “THIOPHENE-SUBSTITUTED TETRACYCLIC COMPOUNDS AND METHODS OFUSE THEREOF FOR THE TREATMENT OF VIRAL DISEASES” (priority 2013, published 2016)
Read-outs that look alike come from different tables or passages of the source.

Assays:
Assay in all cases: microbe, parasite or virus in culture
Format in all cases: cell-based, Hepatitis C virus (HCV)
Conditions in all cases: Replicon Assay A
HCV replicon 2B = system: HCV replicon 2B
Summary of the method: (§1)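 HCV replicon RNA levels were quantified by TaqMan RT-PCR after 3-day compound exposure (0.5% DMSO, 5% FBS). Cyclophilin RNA, co-amplified in the same reaction, served as endogenous control; Ct values were converted to RNA amounts using linear regression standard curves.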

HCV replicon 1A = system: HCV replicon 1A
Summary of the method: as §1

HCV replicon 1AY93H = system: HCV replicon 1AY93H
Summary of the method: as §1

[1] = read-out: 1A Y93H IC50, replicon 1AY93H
[2] = read-out: 2B IC50, HCV replicon 2B
[3] = Hepatitis C virus, HCV replicon 1A
[4] = read-out: 1A Y93H IC50, HCV replicon 1A Y93H
[5] = Hepatitis C virus, read-out: 2B IC50 (nM), replicon 2B
[6] = Hepatitis C virus, read-out: 1A Y93H IC50 (nM), replicon 1AY93H
[7] = Hepatitis C virus, read-out: 1A Y93H IC50, HCV replicon 1A Y93H

Row | SMILES | IC50 (HCV replicon 2B; read-out: 2B IC50, replicon 2B) | IC50 (HCV replicon 1A; replicon 1A) | IC50 (HCV replicon 1AY93H; [1]) | IC50 (HCV replicon 2B; [2]) | IC50 (HCV replicon 1AY93H; [4]) | other results
1 | CCc1ccc(C2Oc3cc(-c4cnc([C@@H]5CCCN5C(=O)C(NC(=O)OC)C5CCOC(C)(C)C5)[nH]4)cc(F)c3-c3cc4cc(-c5cnc([C@@H]6CCCN6C(=O)[C@@H](NC(=O)OC)C(C)C)[nH]5)ccc4n32)s1 (single isomer, unassigned) [Compound 164] | 0.53 nM | 0.0015 nM | 0.13 nM |  |  | 
2 | COC(=O)NC(C(=O)N1CCC[C@H]1c1ncc(-c2ccc3c(c2)cc2n3C(c3ccc(C4CC4)s3)Oc3cc(-c4cnc([C@@H]5CCCN5C(=O)[C@@H](NC(=O)OC)C(C)C)[nH]4)cc(F)c3-2)[nH]1)C1CCO[C@H](C)C1 (single isomer, unassigned) [Compound 137] | 0.37 nM | 0.0018 nM | 0.28 nM |  |  | 
3 | COC(=O)NC(C(=O)N1CCC[C@H]1c1ncc(-c2cc(F)c3c(c2)OC(c2ccc(C4CC4)s2)n2c-3cc3cc(-c4cnc([C@@H]5CCCN5C(=O)[C@@H](NC(=O)OC)C(C)C)[nH]4)ccc32)[nH]1)C1CCOC(C)(C)C1 (single isomer, unassigned) [Compound 212] | 8.59 nM | 0.0681 nM | 6.07 nM |  |  | 
4 | CCc1ccc(C2Oc3cc(-c4cnc([C@@H]5CCCN5C(=O)[C@@H](NC(=O)OC)C(C)C)[nH]4)cc(F)c3-c3cc4cc(-c5cnc([C@@H]6C[C@H]7C[C@H]7N6C(=O)C(NC(=O)OC)C6CCOC(C)(C)C6)[nH]5)ccc4n32)s1 (single isomer, unassigned) [Compound 199] | 33.3 nM | 0.118 nM | 26.5 nM |  |  | 
5 | COC(=O)NC(C(=O)N1CCC[C@H]1c1ncc(-c2ccc3c(c2)cc2n3C(c3ccc(C4CC4)s3)Oc3cc(-c4cnc([C@@H]5C[C@@H](F)CN5C(=O)[C@@H](NC(=O)OC)C(C)C)[nH]4)cc(F)c3-2)[nH]1)C(C)(C)F (single isomer, unassigned) [Compound 112] | 7.07 nM | 0.0022 nM | 0.23 nM |  |  | 
6 | COC(=O)NC(C(=O)N1[C@@H]2C[C@@H]2C[C@H]1c1ncc(-c2ccc3c(c2)c(F)c2n3C(c3ccc(C4CC4)s3)Oc3cc(-c4cnc([C@@H]5CCCN5C(=O)[C@@H](NC(=O)OC)C(C)C)[nH]4)cc(F)c3-2)[nH]1)C1CCOC(C)(C)C1 (single isomer, unassigned) [Compound 422] |  |  |  | 0.138 nM | 0.107 nM | IC50 (HCV replicon 1A; [3]): 0.0023 nM
7 | CCc1ccc(C2Oc3cc(-c4cnc([C@@H]5CCCN5C(=O)[C@@H](NC(=O)OC)C(C)C)[nH]4)ccc3-c3c(F)c4cc(-c5cnc([C@@H]6CCCN6C(=O)[C@@H](NC(=O)OC)C(C)C)[nH]5)ccc4n32)s1 (single isomer, unassigned) [Compound 603] |  |  |  | 0.496 nM | 0.183 nM | IC50 (HCV replicon 1A; HCV replicon 1A): 0.0032 nM
8 | COC(=O)NC(C(=O)N1CCC[C@H]1c1ncc(-c2ccc3c(c2)cc2n3C(c3ccc(C(C)C)s3)Oc3cc(-c4cnc([C@@H]5CCCN5C(=O)[C@@H](NC(=O)OC)C(C)C)[nH]4)cc(F)c3-2)[nH]1)C1CCOC(C)(C)C1 (single isomer, unassigned) [Compound 238] | 7.05 nM | 0.13 nM | 3.12 nM |  |  | 
9 | COC(=O)N[C@H](C(=O)N1CCC[C@H]1c1cnc(-c2ccc3c(c2)cc2n3C(c3cc4ccccc4s3)Oc3cc(-c4cnc([C@@H]5CCCN5C(=O)[C@@H](NC(=O)OC)C5CCOCC5)[nH]4)ccc3-2)[nH]1)C1CCOCC1 (single isomer, unassigned) [Compound 811] |  |  |  | 0.664 nM | 0.058 nM | IC50 (HCV replicon 1A; HCV replicon 1A): 0.042 nM
10 | CCc1ccc(C2Oc3cc(-c4cnc([C@@H]5CCCN5C(=O)[C@@H](NC(=O)OC)C(C)C)[nH]4)cc(F)c3-c3cc4cc(-c5cnc([C@@H]6CCCN6C(=O)C(NC(=O)OC)C6CCOC(C)(C)C6)[nH]5)ccc4n32)s1 (single isomer, unassigned) [Compound 147] | 0.62 nM | 0.0025 nM | 0.43 nM |  |  | 
11 | CCc1ccc(C2Oc3cc(-c4cnc([C@@H]5C[C@H]6C[C@H]6N5C(=O)[C@@H](NC(=O)OC)C(C)C)[nH]4)cc(F)c3-c3cc4cc(-c5cnc([C@@H]6C[C@H]7C[C@H]7N6C(=O)[C@@H](NC(=O)OC)C(C)C)[nH]5)ccc4n32)s1 (single isomer, unassigned) [Compound 50] |  |  |  |  |  | IC50 (HCV replicon 2B; [5]): 1.39 nM; IC50 (HCV replicon 1A; Hepatitis C virus, replicon 1A): 0.0014 nM; IC50 (HCV replicon 1AY93H; [6]): 0.0284 nM
12 | COC(=O)N[C@H](C(=O)C1NCC[C@H]1c1ncc(-c2ccc3c(c2)OC(c2ccc(C4CC4)s2)n2c-3cc3cc(-c4c[nH]c([C@@H]5C[C@H]6C[C@H]6N5C(=O)[C@@H](NC(=O)OC)C(C)C)n4)ccc32)[nH]1)C(C)C (mixture of isomers) [Compound 504] |  |  |  |  |  | IC50 (HCV replicon 2B; Hepatitis C virus, read-out: 2B IC50, HCV replicon 2B): 1.52 nM; IC50 (HCV replicon 1A; [3]): 0.0167 nM; IC50 (HCV replicon 1AY93H; [7]): 0.245 nM
13 | COCC(C)(C)c1ccc(C2Oc3cc(-c4cnc([C@@H]5CCCN5C(=O)[C@@H](NC(=O)OC)C(C)C)[nH]4)cc(F)c3-c3cc4cc(-c5cnc([C@@H]6CCCN6C(=O)[C@@H](NC(=O)OC)C(C)C)[nH]5)ccc4n32)s1 (single isomer, unassigned) [Compound 400] | 1.69 nM | 0.0017 nM | 0.151 nM |  |  | 
14 | COC(=O)N[C@H](C(=O)N1CCC[C@H]1c1ncc(-c2cc(C)c3c(c2)OC(c2ccc(C4CC4)s2)n2c-3cc3cc(-c4cnc([C@@H]5CCCN5C(=O)[C@@H](NC(=O)OC)C(C)C)[nH]4)ccc32)[nH]1)C(C)C (single isomer, unassigned) [Compound 752] |  |  |  | 0.6 nM | 2.7 nM | IC50 (HCV replicon 1A; HCV replicon 1A): 0.0028 nM
15 | CCc1ccc(C2Oc3cc(-c4cnc([C@@H]5CCCN5C(=O)C(NC(=O)OC)C5CCOC(C)(C)C5)[nH]4)cc(F)c3-c3cc4cc(-c5cnc([C@@H]6CCCN6C(=O)C(NC(=O)OC)C6CCOC(C)(C)C6)[nH]5)ccc4n32)s1 (single isomer, unassigned) [Compound 298] | 2.09 nM | 0.0784 nM | 1.22 nM |  |  | 
16 | CCc1ccc(C2Oc3cc(-c4cnc([C@@H]5CCCN5C(=O)[C@@H](NC(=O)OC)C(C)C)[nH]4)cc(F)c3-c3cc4cc(-c5cnc([C@@H]6CCCN6C(=O)C(NC(=O)OC)C6CCOC(C)(C)C6)[nH]5)ccc4n32)s1 (single isomer, unassigned) [Compound 153] | 0.51 nM | 0.0021 nM | 0.422 nM |  |  | 
17 | COC(=O)NC(C(=O)N1CCC[C@H]1c1ncc(-c2ccc3c(c2)cc2n3C(c3ccc(C4CC4)s3)Oc3cc(-c4cnc([C@@H]5CCCN5C(=O)[C@@H](NC(=O)OC)C(C)C)[nH]4)cc(F)c3-2)[nH]1)C1CCOC(C)(C)C1 (single isomer, unassigned) [Compound 220] | 0.93 nM | 0.0021 nM | 0.52 nM |  |  | 
18 | COC(=O)N[C@H](C(=O)N1CCC[C@H]1c1ncc(-c2ccc3c(c2)OC(c2cc4ccccc4s2)n2c-3cc3cc(-c4cnc([C@@H]5C[C@@H](F)CN5C(=O)[C@@H](NC(=O)OC)C5CCOCC5)[nH]4)ccc32)[nH]1)C(C)C (single isomer, unassigned) [Compound 627] |  |  |  | 0.631 nM | 0.0157 nM | IC50 (HCV replicon 1A; HCV replicon 1A): 0.00302 nM
19 | COC(=O)N[C@H](C(=O)N1CCC[C@H]1c1ncc(-c2ccc3c(c2)OC(c2cc4ccccc4s2)n2c-3cc3cc(-c4cnc([C@@H]5C[C@@H](F)CN5C(=O)[C@@H](NC(=O)OC)C5CCOCC5)[nH]4)ccc32)[nH]1)C1CCOCC1 (single isomer, unassigned) [Compound 812] |  |  |  | 0.15 nM | 0.44 nM | IC50 (HCV replicon 1A; [3]): 0.034 nM
20 | COC(=O)N[C@H](C(=O)N1CCC[C@H]1c1ncc(-c2ccc3c(c2)OC(c2cc4sccc4s2)n2c-3cc3cc(-c4c[nH]c([C@@H]5C[C@H]6C[C@H]6N5C(=O)[C@@H](NC(=O)OC)C(C)C)n4)ccc32)[nH]1)C(C)C (single isomer, unassigned) [Compound 718] |  |  |  | 0.82 nM | 0.11 nM | IC50 (HCV replicon 1A; HCV replicon 1A): 0.0024 nM
21 | COC(=O)N[C@H](C(=O)N1CCC[C@H]1c1ncc(-c2cc(F)c3c(c2)OC(c2scc4c2OCCO4)n2c-3cc3cc(-c4cnc([C@@H]5CCCN5C(=O)[C@@H](NC(=O)OC)C(C)C)[nH]4)ccc32)[nH]1)C(C)C (single isomer, unassigned) [Compound 523] |  |  |  | 12.4 nM |  | IC50 (HCV replicon 1A; HCV replicon 1A): 0.0032 nM; IC50 (HCV replicon 1AY93H; [7]): 11.7 nM
22 | COC(=O)NC(C(=O)N1CCC[C@H]1c1ncc(-c2ccc3c(c2)cc2n3C(c3ccc(C4CC4)s3)Oc3cc(-c4cnc([C@@H]5CCCN5C(=O)[C@@H](NC(=O)OC)C(C)C)[nH]4)cc(F)c3-2)[nH]1)C(C)(C)F (single isomer, unassigned) [Compound 76] | 13.7 nM | 0.0159 nM | 2.55 nM |  |  | 
23 | COC(=O)N[C@H](C(=O)N1CCC[C@H]1c1ncc(-c2cc(F)c3c(c2)OC(c2ccc(C(C)(C)C)s2)n2c-3cc3cc(-c4cnc([C@@H]5CCCN5C(=O)[C@@H](NC(=O)OC)C(C)C)[nH]4)ccc32)[nH]1)C(C)C (single isomer, unassigned) [Compound 62] |  |  |  |  |  | IC50 (HCV replicon 2B; [5]): 2.88 nM; IC50 (HCV replicon 1A; Hepatitis C virus, replicon 1A): 0.0014 nM; IC50 (HCV replicon 1AY93H; [6]): 0.69 nM
24 | COC(=O)NC(C(=O)N1CCC[C@H]1c1ncc(-c2ccc3c(c2)cc2n3C(c3ccc(C4CC4)s3)Oc3cc(-c4cnc([C@@H]5CCCN5C(=O)[C@@H](NC(=O)OC)C(C)C)[nH]4)cc(F)c3-2)[nH]1)C1CC(C)(C)OC(C)(C)C1 (single isomer, unassigned) [Compound 420] |  |  |  | 6.03 nM | 3.13 nM | IC50 (HCV replicon 1A; [3]): 0.0029 nM
25 | COC(=O)N[C@H](C(=O)N1C[C@H](F)C[C@H]1c1nc(-c2ccc3c(c2)OC(c2ccc(C)s2)n2c-3cc3cc(-c4c[nH]c([C@@H]5C[C@H]6C[C@H]6N5C(=O)[C@@H](NC(=O)OC)C5CCOCC5)n4)ccc32)c[nH]1)C1CCOCC1 (single isomer, unassigned) [Compound 729] |  |  |  | 0.034 nM | 0.22 nM | IC50 (HCV replicon 1A; HCV replicon 1A): 0.028 nM
